Activity calls are given as the source filed them. How the calls were made is not given here.
What follows are compounds tested against Peptidyl-prolyl cis-trans isomerase FKBP1A (Homo sapiens) (UniProt P62942) (assay: small-molecule binding to FKBP12 – biophysical, NMR detection (AID 608)). Details: purified FKBP12.
Chain of Peptidyl-prolyl cis-trans isomerase FKBP1A (Homo sapiens) (P62942 whole entry, looked up): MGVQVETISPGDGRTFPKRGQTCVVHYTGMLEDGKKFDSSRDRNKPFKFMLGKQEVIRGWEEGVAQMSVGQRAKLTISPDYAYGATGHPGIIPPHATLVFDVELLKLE

Structure (SMILES) | Kd
CC(=O)O[C@@H]1CC2C(C)(C)[C@H](O)C[C@H](O)[C@]2(C)C2CC[C@@]3(C)C(=CC(=O)O[C@H]3c3ccoc3)[C@@]21C (stereo partly specified) | > 4 mM (inactive)
O=C(O)C1CN(Cc2ccccc2)CCO1 (stereo unspecified) | > 4 mM (inactive)
Nc1ncnc2c1ncn2CCOc1ccccc1 | > 4 mM (inactive)
O=C(O)Cn1c(=O)sc2ccccc21 | > 4 mM (inactive)
NC(=O)C1CCN(C(=S)c2ccccc2)CC1 | > 4 mM (inactive)
CC(=O)NC(=S)Nc1ccccc1C(N)=O | > 4 mM (inactive)
COc1ccc2c(c1)=C(c1sc(N)nc1O)C(=O)N=2 | > 4 mM (inactive)
Cn1nnc2cc(C(=O)Nc3cccnc3)ccc21 | > 4 mM (inactive)
CCOC(=O)C(C)c1n[nH]c(=O)c2ccccc12 (stereo unspecified) | > 4 mM (inactive)
Cn1ccnc1SCc1cc(=O)[nH]c2ccccc12 | > 4 mM (inactive)
CC(C)c1c(O)ccc2c1CCC1[C@@](C)(CO)CCC[C@]21C (stereo partly specified) | > 4 mM (inactive)
O=C1CNCc2[nH]c3ccccc3c2N1c1ccccc1 | > 4 mM (inactive)
Cn1c2c(c(=O)n(C)c1=O)CN(Cc1ccco1)CN2 | > 4 mM (inactive)
Cc1noc(-c2ccccc2)c1CO | > 4 mM (inactive)
CCOc1cccc(C(=O)c2ccc(O)c(O)c2O)c1 | > 4 mM (inactive)
Cn1ccc(NC(=S)NC2CCCC2)n1 | > 4 mM (inactive)
C[C@H]1[C@H]2CCC3C4CC=C5C[C@@H](N(C)C)CC[C@]5(C)C4CC[C@@]32CN1C (stereo partly specified) | > 4 mM (inactive)
CS(=O)(=O)c1nncn1-c1ccccc1 | > 4 mM (inactive)
Cc1nnc(N2CCc3ccccc3C2)[nH]c1=O | > 4 mM (inactive)
Cc1ccccc1N1C(=O)CC(=O)NC1=O | > 4 mM (inactive)
Cc1ccccc1NC(=O)CC1NCCNC1=O (stereo unspecified) | > 4 mM (inactive)
NCc1ccc(-n2cccn2)cc1 | > 4 mM (inactive)
Cc1ccc2nc(NC(=O)CN3CCOCC3)sc2c1 | > 4 mM (inactive)
NC(=O)C(=O)NCc1ccc(Cl)cc1 | > 4 mM (inactive)

Structure (SMILES) | Kd
NC(=S)NC(=O)CN1C(=O)c2ccccc2C1=O | > 4 mM (inactive)
CC1CCN(C(=O)c2cc3ccccc3o2)CC1 | > 4 mM (inactive)
O=S(=O)(c1cccc(Cl)c1)N1CCCC1 | > 4 mM (inactive)
N#Cc1cccc(Cn2nnc(-c3ccccc3)n2)c1 | > 4 mM (inactive)
COC(=O)[C@]1(C)CC[C@]2(C)CC[C@]3(C)C4=CCc5c(cc(O)c(O)c5C)[C@]4(C)CC[C@@]3(C)C2C1 (stereo partly specified) | > 4 mM (inactive)
COc1ccc(C2(CN)CCOCC2)cc1OC | > 4 mM (inactive)
COc1ccc(Cl)c(S(=O)(=O)N2CCCC2)c1 | > 4 mM (inactive)
NC(=O)c1ccccc1N1CCCCC1 | > 4 mM (inactive)
COc1ccc2c(=O)c(CC(=O)O)coc2c1 | > 4 mM (inactive)
C=CC1=C(C)/C(=C/c2[nH]c(Cc3[nH]c(/C=C4\NC(=O)C(C)=C4C=C)c(C)c3CCC(=O)O)c(CCC(=O)O)c2C)NC1=O | > 4 mM (inactive)
CSc1nc(NC(C)(C)C)nc(N2CCOCC2)n1 | > 4 mM (inactive)
CSc1ccccc1NC(=O)c1ccncc1 | > 4 mM (inactive)
O=C1CC(=O)N2N=C(c3ccccc3)SC2=N1 | > 4 mM (inactive)
Nc1nc(SCC(=O)c2ccc([N+](=O)[O-])cc2)n[nH]1 | > 4 mM (inactive)
C=C1C(=O)OC2CC1C(OC(C)=O)C/C(C)=C/CC/C(C)=C/CC[C@]2(C)O (stereo partly specified) | > 4 mM (inactive)
Nc1ccc(C(=O)NCC2CCCO2)cc1 (stereo unspecified) | > 4 mM (inactive)
CC1=[N+]([O-])C2(N)CCc3c(no[n+]3[O-])C2(O)C1 (stereo unspecified) | > 4 mM (inactive)
NC(=S)NC1CCS(=O)(=O)C1 (stereo unspecified) | > 4 mM (inactive)
Cc1scc(C(=O)Nc2ccon2)c1-c1ccccc1 | > 4 mM (inactive)
O=C(O)c1ccc(N2CCOCC2)nc1 | > 4 mM (inactive)
CC(C)=CCC/C(C)=C/CC/C(C)=C/CC/C(C)=C/CC/C(C)=C/CC/C(C)=C/CC/C(C)=C/CC/C(C)=C/CC/C(C)=C/CO | > 4 mM (inactive)
O=C1CS/C(=N/N=C2CCCC2)N1 | > 4 mM (inactive)
O=C(O)CC[N+](=O)[O-] | > 4 mM (inactive)
Cn1c(=O)cc(O)c2ccccc21 | > 4 mM (inactive)

Structure (SMILES) | Kd
NC1=C(c2ccccc2)C(=O)c2ccccc21 | > 4 mM (inactive)
CC(O)c1ccc(C(C)O)cc1 (stereo unspecified) | > 4 mM (inactive)
O=C(O)c1ccc(-c2cnco2)cc1 | > 4 mM (inactive)
N=C1/C(=C\c2ccco2)C(=O)N=C2SC=NN12 | > 4 mM (inactive)
Oc1cccc2[nH]ccc12 | > 4 mM (inactive)
O=C1NC(=S)N/C1=C\c1ccccc1F | > 4 mM (inactive)
O=C(NCc1ccccc1F)c1cccs1 | > 4 mM (inactive)
Cn1c(SCc2ccon2)nc2ccccc2c1=O | > 4 mM (inactive)
CC(=O)CC1CCCCN1 (stereo unspecified) | > 4 mM (inactive)
COc1ccc(Cl)cc1-c1nc(-c2ccncc2)no1 | > 4 mM (inactive)
C[C@@H]1CC[C@@]23CCC4(C)[C@@](C=CC5[C@@]6(C)CC[C@H](O)C(C)(C)C6CC[C@]54C)(OC2=O)C3[C@H]1C (stereo partly specified) | > 4 mM (inactive)
O=C(Nc1ccon1)c1cc2c(s1)CCCC2 | > 4 mM (inactive)
Nc1cccc(-c2cnco2)c1 | > 4 mM (inactive)
CCN1C(=O)c2c(C)nc3ccccc3c2C1=O | > 4 mM (inactive)
Cc1nc(-c2cccc(-c3noc(C)n3)c2)no1 | > 4 mM (inactive)
N#Cc1cn(CC(=O)N2CCCC2)c2ccccc12 | > 4 mM (inactive)
CCOc1cc(C)c(Cl)cc1S(=O)(=O)N(C)C | > 4 mM (inactive)
O=C(O)C1=CCCNC1 | > 4 mM (inactive)
C=C1C[C@]23C[C@@]1(O)CC[C@H]2[C@@]12C=C[C@H](O)C(C)(C(=O)O1)[C@H]2[C@@H]3C(=O)O | > 4 mM (inactive)
COc1cccc(NC(=O)c2cccs2)c1 | 0.44 mM
O=C(O)CCn1c(=O)oc2ccccc21 | > 4 mM (inactive)
NC(=O)C1CCN(Cc2ccccc2)CC1 | > 4 mM (inactive)
O=C1NC(=O)/C(=C\c2ccco2)S1 | > 4 mM (inactive)
CC1(C)NC(=O)N(CN2CCOCC2)C1=O | > 4 mM (inactive)

Structure (SMILES) | Kd
O=c1ccc2ccc(O)cc2o1 | > 4 mM (inactive)
CNc1nc(N)c(C(=O)C(C)(C)C)s1 | > 4 mM (inactive)
NC(=O)c1cc(Cl)c(C(N)=O)cc1Cl | > 4 mM (inactive)
O=c1[nH]oc2ccccc12 | > 4 mM (inactive)
CSc1nnc2ccc(-c3cccnc3)nn12 | > 4 mM (inactive)
O=C1OCCC1Sc1nc2ccccc2c(=O)[nH]1 (stereo unspecified) | > 4 mM (inactive)
NC(=O)C1CCN(CN2C(=O)c3ccccc3C2=O)CC1 | > 4 mM (inactive)
O=C1CS/C(=N/N=C/c2cccs2)N1 | > 4 mM (inactive)
CC(=O)O[C@H]1CC[C@]2(C)C3CC[C@@]4(C)C(CC5O[C@@]6(CCC(C)CO6)[C@@H](C)C54)C3CC[C@@H]2C1 (stereo partly specified) | > 4 mM (inactive)
CC(C)CCCC(C)C1CCC2C3CC(=O)[C@H]4C[C@@H](O)CC[C@]4(C)C3CC[C@]12C (stereo partly specified) | > 4 mM (inactive)
Cn1c(=O)n(CC(=O)Nc2cccnc2)c2ccccc21 | > 4 mM (inactive)
S=C(Nc1ccccc1)Nc1nncs1 | > 4 mM (inactive)
CCOc1ccc(-c2c(=O)n(O)c3ccccc3[n+]2[O-])cc1 | > 4 mM (inactive)
COc1ccc2c(c1)OC[C@@H](Cc1ccc(OC)c(OC)c1)[C@H]2O | > 4 mM (inactive)
CC(C)[C@@H]1CC[C@@H](C)C[C@H]1OC(=O)c1ccccc1 | > 4 mM (inactive)
c1cncc(Nc2nc(-c3ccncc3)cs2)c1 | > 4 mM (inactive)
c1ccc2c(c1)nnn2C1CCNCC1 | > 4 mM (inactive)
Cc1ccc2c(C)c(C(=O)Nc3nnc(C)s3)oc2c1 | > 4 mM (inactive)
CC(C)(O)[C@@H]1Cc2cc3ccc(=O)oc3cc2O1 | > 4 mM (inactive)
O=C1c2ccccc2C(=O)N1OCc1ccccc1 | > 4 mM (inactive)
NC(=O)CSc1ccc(Br)cc1 | > 4 mM (inactive)
CCOC(=O)c1c(C)cc(O)c(C)c1O | > 4 mM (inactive)
O=C1CNC(=O)N1c1cccc(Cl)c1 | > 4 mM (inactive)
O=C(Nc1cnccn1)c1cccc(C(F)(F)F)c1 | > 4 mM (inactive)

Structure (SMILES) | Kd
Cc1cc(Cl)ccc1OC(C)C(=O)N1CCOCC1 (stereo unspecified) | inactive
CC(C)(C)NC(=O)N1CCC(C(N)=O)CC1 | > 4 mM (inactive)
NC(=O)COc1ccccc1O | > 4 mM (inactive)
Cc1ncc(CC(=O)O)s1 | > 4 mM (inactive)
O=C(CO)N/N=C/c1ccccc1F | > 4 mM (inactive)
NC(CSCSCC(N)C(=O)O)C(=O)O (stereo unspecified) | > 4 mM (inactive)
COc1ncccc1N | > 4 mM (inactive)
O=C(O)CCC(=O)Nc1nnc(C(F)(F)F)s1 | > 4 mM (inactive)
CC(=O)N1CN(C(C)=O)CN(C(C)=O)C1 | > 4 mM (inactive)
Cc1nn(-c2ccccc2)c(Cl)c1C(N)=O | > 4 mM (inactive)
COc1ccc2nc(N)sc2n1 | > 4 mM (inactive)
Nc1cc(=O)[nH]c(=S)n1CCc1ccccc1 | > 4 mM (inactive)
Cc1[nH]n(-c2ccccc2)c(=O)c1[N+](=O)[O-] | > 4 mM (inactive)
Cc1ccc(C(=O)Nc2nnc(-c3ccncc3)s2)o1 | > 4 mM (inactive)
CC(C)=CCC1=C(O)c2ccccc2C(=O)C1=O | > 4 mM (inactive)
CC1(C)C(=O)C=C[C@@]2(C)C1C=C[C@]1(C)C2CC[C@@]2(C)[C@H](c3ccoc3)OC(=O)C3OC321 (stereo partly specified) | > 4 mM (inactive)
COC(=O)C[C@H]1C2(C)CC34OC5(C)O[C@@]6([C@H](OC(C)=O)C(OC(C)=O)[C@]7(C)C(/C(=C(/O)C(C)C)C(=O)O[C@H]7c7ccoc7)[C@@]6(O5)[C@H](OC(C)=O)[C@@]3(O)C2OC(=O)C(C)C)[C@]14C (stereo partly specified) | > 4 mM (inactive)
Cc1ccc(NC(=O)C(=O)Nc2ccccn2)cc1 | > 4 mM (inactive)
O=C(O)C1CC(=O)N(C2Cc3ccccc3C2)C1 (stereo unspecified) | > 4 mM (inactive)
Nc1cc(C(=O)O)ccc1N1CCCCCC1 | > 4 mM (inactive)
